tested on: Tetrahymena pyriformis; assay: 48 h IGC50 (-log10 mol/L); higher = more toxic

Going from `CC1CC(=O)O1` (stereo not drawn) to `Cc1cc[nH]c(=O)c1[N+](=O)[O-]`, the “48 h IGC50 (-log10 mol/L)” value rises from 2.24 to 2.5.

Going from `CC(O)CCC(C)O` (stereo not drawn) to `CCC(=O)OCC(C)C`, the “48 h IGC50 (-log10 mol/L)” value rises from 1.04 to 2.31.

First: O=[N+]([O-])c1c(F)c(F)c(F)c(F)c1F
Second: O=[N+]([O-])c1ccc(F)cc1O
The “48 h IGC50 (-log10 mol/L)” value of the first is higher: 5.43 for the first, 4.12 for the second.

Compared with `N#Cc1cccc2ccccc12`, `O=Cc1cccc2ccccc12` is lower in “48 h IGC50 (-log10 mol/L)” value: 3.69 for the first, 3.42 for the second.

Going from `CCOC(=O)C(Br)C(C)C` (stereo not drawn) to `CCOC(=O)C(Br)CC` (stereo not drawn), the “48 h IGC50 (-log10 mol/L)” value rises from 3.02 to 3.76.

`C1CSCCS1` and `SC1CCCCC1` are within 0.2 log units of each other in “48 h IGC50 (-log10 mol/L)” value: 2.89 for the first, 3 for the second.

First: O=[N+]([O-])c1ccncc1
Second: NC(=O)c1ccc([N+](=O)[O-])cc1
The “48 h IGC50 (-log10 mol/L)” value of the first is higher: 3.41 for the first, 3.18 for the second.

`COC(=O)CC#N` and `CCCC(=O)OC` are within 0.2 log units of each other in “48 h IGC50 (-log10 mol/L)” value: 1.66 for the first, 1.75 for the second.

First: CCOc1ccc(O)cc1
Second: Oc1ccc(Br)cc1
The “48 h IGC50 (-log10 mol/L)” value of the first is lower: 3.01 for the first, 3.68 for the second.

Compared with `CC(=O)c1ccc(C)[nH]1`, `COc1cc(C(C)=O)ccc1O` is higher in “48 h IGC50 (-log10 mol/L)” value: 2.17 for the first, 2.88 for the second.

First: O=Cc1cccc(Br)c1
Second: Cc1cccc(C=O)c1
The “48 h IGC50 (-log10 mol/L)” value of the first is higher: 3.51 for the first, 3.08 for the second.

Going from `O=Cc1ccc(-c2ccccc2)cc1` to `CC(O)(Cc1ccccc1)c1ccccc1` (stereo not drawn), the “48 h IGC50 (-log10 mol/L)” value falls from 4.12 to 3.8.

Going from `O=Cc1c(O)cc(O)cc1O` to `O=Cc1cc(Cl)cc(Cl)c1O`, the “48 h IGC50 (-log10 mol/L)” value rises from 3.13 to 4.55.

Compared with `N#Cc1ccc(Cl)s1`, `O=Cc1ccc(Cl)s1` is higher in “48 h IGC50 (-log10 mol/L)” value: 2.92 for the first, 3.62 for the second.

First: O=C/C=C/c1ccco1
Second: O=Cc1ccccn1
The “48 h IGC50 (-log10 mol/L)” value of the first is higher: 3.37 for the first, 2.86 for the second.

First: CCOC(=O)CI
Second: C#CCOC(=O)CC
The “48 h IGC50 (-log10 mol/L)” value of the first is higher: 5.92 for the first, 2.35 for the second.

Compared with `CCCCCCC#N`, `N#CCCCCCCCl` is higher in “48 h IGC50 (-log10 mol/L)” value: 2.76 for the first, 3.29 for the second.

Going from `C=CC(=O)OCc1ccccc1` to `NCc1ccccc1`, the “48 h IGC50 (-log10 mol/L)” value falls from 4.35 to 2.76.

Compared with `CCCCOc1ccc([N+](=O)[O-])cc1`, `CCCCCOc1ccc(N)cc1` is lower in “48 h IGC50 (-log10 mol/L)” value: 4.42 for the first, 3.97 for the second.

Going from `COCCCN` to `CCCCCCCCCCN`, the “48 h IGC50 (-log10 mol/L)” value rises from 1.23 to 5.06.

Going from `CCCCCCC/C=C/C=O` to `CCCCCCC#CC(=O)O`, the “48 h IGC50 (-log10 mol/L)” value falls from 4.85 to 3.71.

Going from `O=[N+]([O-])c1cc(Cl)c(Cl)c(Cl)c1Cl` to `Nc1c(Cl)cc(Cl)cc1[N+](=O)[O-]`, the “48 h IGC50 (-log10 mol/L)” value falls from 4.78 to 4.26.

Going from `C=CC(=O)OC` to `C=CC(=O)CCCCC`, the “48 h IGC50 (-log10 mol/L)” value rises from 3.55 to 4.92.

Going from `Nc1cc(Cl)c([N+](=O)[O-])cc1O` to `Cc1ccc([N+](=O)[O-])cc1O`, the “48 h IGC50 (-log10 mol/L)” value falls from 4.17 to 3.66.

First: Cc1cc(O)c(Cl)cc1C
Second: Cc1ccc(C)c(N)c1
The “48 h IGC50 (-log10 mol/L)” value of the first is higher: 3.69 for the first, 2.67 for the second.

Compared with `C/C=C/C=C/C=O`, `CC(C)(C)CC=O` is lower in “48 h IGC50 (-log10 mol/L)” value: 3.74 for the first, 2.63 for the second.

First: CCCOC(=O)/C=C/c1ccccc1
Second: CCCCCCOC(=O)c1ccccc1
The “48 h IGC50 (-log10 mol/L)” value of the first is lower: 4.23 for the first, 4.94 for the second.

Compared with `OCc1cccc(F)c1`, `COc1cccc(C#N)c1` is higher in “48 h IGC50 (-log10 mol/L)” value: 2.61 for the first, 3.01 for the second.

`C#CCNC` and `C#CCN(C)C` are within 0.2 log units of each other in “48 h IGC50 (-log10 mol/L)” value: 2.02 for the first, 1.85 for the second.

Going from `CCCCCCCC(O)CCCCC` (stereo not drawn) to `CCCCCCC#CC(=O)OCC`, the “48 h IGC50 (-log10 mol/L)” value falls from 5.24 to 4.38.

`NNC(=O)c1ccccc1O` and `O=C(c1ccccc1)C(F)(F)F` are within 0.2 log units of each other in “48 h IGC50 (-log10 mol/L)” value: 3.18 for the first, 2.99 for the second.

First: CCC(N)=O
Second: CCCOC(=O)CCC
The “48 h IGC50 (-log10 mol/L)” value of the first is lower: 0.91 for the first, 2.59 for the second.

Compared with `O=Cc1cc(Br)c(O)c(Br)c1`, `Nc1c(Br)cc(Cl)cc1Br` is higher in “48 h IGC50 (-log10 mol/L)” value: 3.89 for the first, 4.52 for the second.

Compared with `CCCC(Br)C(=O)OCC` (stereo not drawn), `CCOC(=O)CCCC(=O)CC(=O)OCC` is lower in “48 h IGC50 (-log10 mol/L)” value: 3.7 for the first, 2.62 for the second.

Compared with `Cc1cc2ccccc2o1`, `Cc1cnc2ccccc2n1` is lower in “48 h IGC50 (-log10 mol/L)” value: 3.62 for the first, 3.02 for the second.

First: Oc1ccc(Cl)c(Cl)c1
Second: O=Cc1cc(C(F)(F)F)cc(Cl)c1F
The “48 h IGC50 (-log10 mol/L)” value of the first is higher: 4.75 for the first, 4.24 for the second.

Going from `C=C(C)C(=O)OCC(C)C` to `CC(C)COC(=O)C(C)C`, the “48 h IGC50 (-log10 mol/L)” value falls from 2.72 to 2.41.

First: O=C(O)CCC(=O)O
Second: CC(C)(Br)C(=O)O
The “48 h IGC50 (-log10 mol/L)” value of the first is lower: 2.06 for the first, 2.42 for the second.

First: Fc1ccccn1
Second: Cc1ccccc1C#N
The “48 h IGC50 (-log10 mol/L)” value of the first is lower: 1.8 for the first, 2.76 for the second.

Going from `c1cnc2c(c1)ccc1ncccc12` to `N#CCCCCl`, the “48 h IGC50 (-log10 mol/L)” value falls from 4.07 to 2.07.

Going from `CCCC[N+](=O)[O-]` to `CCC(O)(CC)C(C)(C)C`, the “48 h IGC50 (-log10 mol/L)” value rises from 2.31 to 2.83.

`CC(C)(CO)CCl` was tested, and the “48 h IGC50 (-log10 mol/L)” value was 2.22.

From EPA's aquatic toxicity sets
